Data as given in paper PMC3087488 (Journal of Oncology, 2011).

Experiment: adverse events in patients (CTCAE version 3.0)
Type: in vivo, human
Settings: for Any motesanib-related AE, Grade 3 / Any motesanib-related AE, Grade 4 / Any motesanib-related AE, Grade 5 / Motesanib-related AE: Anorexia / Motesanib-related AE: Constipation / Motesanib-related AE: Deep vein thrombosis / Motesanib-related AE: Dehydration / Motesanib-related AE: Dermatitis acneiform / Motesanib-related AE: Diarrhea / Motesanib-related AE: Erythema / Motesanib-related AE: Fatigue / Motesanib-related AE: Hypertension / Motesanib-related AE: Nausea / Motesanib-related AE: Pulmonary embolism / Motesanib-related AE: Rash / Motesanib-related AE: Vomiting / Motesanib-related Arterial thromboembolic events (all grades) / Motesanib-related Arterial thrombosis, Grade 3 / Motesanib-related Arterial thrombosis, Grade 4 / Motesanib-related Cerebrovascular accident, Grade 2 / Motesanib-related Deep vein thrombosis, Grade 2 / Motesanib-related Deep vein thrombosis, Grade 3 / Motesanib-related Gallbladder disorder, Grade 1 / Motesanib-related Hemorrhagic events, Grade 1 / Motesanib-related Jugular vein thrombosis, Grade 2 / Motesanib-related Neutropenia, Grade 3 / Motesanib-related Pulmonary embolism, Grade 4 / Motesanib-related Pulmonary embolism, Grade 5 / Motesanib-related Venous thromboembolic events (all grades) / Patients with any motesanib-related AE: gemcitabine/cisplatin
Experimental: Adverse events were recorded throughout the study and graded (including DLTs) according to the Common Terminology Criteria for Adverse Events, version 3.0. Samples for assessment of hematology, blood chemistry, urinalysis, and thyroid function were collected on day 1 of each cycle.

[1] = 33 patients who received motesanib, all cohorts
[2] = listed after the 125-mg QD cohort
[3] = motesanib 50 mg QD (n = 8) + panitumumab
[4] = motesanib 75 mg BID (n = 2) + panitumumab
[5] = motesanib 75 mg QD (n = 6) + panitumumab

## CC1(C)CNc2cc(NC(=O)c3cccnc3NCc3ccncc3)ccc21 [motesanib]
100 mg QD cohort
  grade 3 cholelithiasis: One
125 mg QD cohort
  grade 1 jaundice: one
[1]
  motesanib-related anorexia: 8 patients
  motesanib-related diarrhea: 10 patients
  motesanib-related fatigue: 14 patients
  motesanib-related hypertension: 15 patients
  motesanib-related nausea: 15 patients
  motesanib-related pulmonary embolism: 8 patients
  motesanib-related vomiting: 8 patients
125-mg QD cohort
  patients with serious motesanib-related adverse events: 8 patients
All cohorts
  hypothyroidism: did not occur
  patients who discontinued motesanib because of adverse events: 13 patients
All cohorts, 10 patients
  patients with motesanib-related venous thromboembolic events: 24%
All cohorts, eight patients (one grade 5)
  patients with grade 4 or 5 pulmonary embolism: 20%
All cohorts, four patients
  patients with deep vein thrombosis (grade 2 or 3): 10%
All cohorts, fourteen patients
  patients with serious adverse events considered related to motesanib: 34%
All cohorts, one patient
  patients with grade 2 jugular vein thrombosis: 2%
All cohorts, six patients
  patients with motesanib-related serious adverse event with a worst grade of 4: 15%
All cohorts, three patients
  patients with motesanib-related arterial thromboembolic events: 7%
Any tested dose level
  cholecystitis: did not occur
[2]
  serious motesanib-related arterial thrombosis: 1 patients
  serious motesanib-related asthenia: 1 patients
  serious motesanib-related atrial fibrillation: 1 patients
  serious motesanib-related confusional state: 1 patients
  serious motesanib-related deep vein thrombosis: 2 patients
  serious motesanib-related dehydration: 2 patients
  serious motesanib-related diarrhea: 2 patients
  serious motesanib-related headache: 1 patients
  serious motesanib-related hyponatremia: 1 patients
  serious motesanib-related pulmonary embolism: 3 patients
  serious motesanib-related sudden death: 1 patients
[3]
  Any motesanib-related AE, Grade 3: 2 (25) n (%)
  Any motesanib-related AE, Grade 4: 0 (0) n (%)
  Any motesanib-related AE, Grade 5: 1 (13) n (%)
  Motesanib-related AE: Anorexia: 2 (25) n (%)
  Motesanib-related AE: Constipation: 0 (0) n (%)
  Motesanib-related AE: Deep vein thrombosis: 1 (13) n (%)
  Motesanib-related AE: Dehydration: 0 (0) n (%)
  Motesanib-related AE: Dermatitis acneiform: 1 (13) n (%)
  Motesanib-related AE: Diarrhea: 1 (13) n (%)
  Motesanib-related AE: Erythema: 1 (13) n (%)
  Motesanib-related AE: Fatigue: 4 (50) n (%)
  Motesanib-related AE: Hypertension: 3 (38) n (%)
  Motesanib-related AE: Nausea: 4 (50) n (%)
  Motesanib-related AE: Pulmonary embolism: 1 (13) n (%)
  Motesanib-related AE: Rash: 0 (0) n (%)
  Motesanib-related AE: Vomiting: 2 (25) n (%)
  Motesanib-related Arterial thromboembolic events (all grades): 1 (13) n (%)
  Motesanib-related Arterial thrombosis, Grade 3: 0 (0) n (%)
  Motesanib-related Arterial thrombosis, Grade 4: 0 (0) n (%)
  Motesanib-related Cerebrovascular accident, Grade 2: 1 (13) n (%)
  Motesanib-related Deep vein thrombosis, Grade 2: 1 (13) n (%)
  Motesanib-related Deep vein thrombosis, Grade 3: 0 (0) n (%)
  Motesanib-related Gallbladder disorder, Grade 1: 0 (0) n (%)
  Motesanib-related Hemorrhagic events, Grade 1: 1 (13) n (%)
  Motesanib-related Jugular vein thrombosis, Grade 2: 0 (0) n (%)
  Motesanib-related Neutropenia, Grade 3: 1 (13) n (%)
  Motesanib-related Pulmonary embolism, Grade 4: 0 (0) n (%)
  Motesanib-related Pulmonary embolism, Grade 5: 1 (13) n (%)
  Motesanib-related Venous thromboembolic events (all grades): 2 (25) n (%)
  Patients with any motesanib-related AE: 6 (75) n (%)
[4]
  Any motesanib-related AE, Grade 3: 1 (50) n (%)
  Any motesanib-related AE, Grade 4: 1 (50) n (%)
  Any motesanib-related AE, Grade 5: 0 (0) n (%)
  Motesanib-related AE: Anorexia: 0 (0) n (%)
  Motesanib-related AE: Constipation: 0 (0) n (%)
  Motesanib-related AE: Deep vein thrombosis: 0 (0) n (%)
  Motesanib-related AE: Dehydration: 0 (0) n (%)
  Motesanib-related AE: Dermatitis acneiform: 0 (0) n (%)
  Motesanib-related AE: Diarrhea: 1 (50) n (%)
  Motesanib-related AE: Erythema: 0 (0) n (%)
  Motesanib-related AE: Fatigue: 0 (0) n (%)
  Motesanib-related AE: Hypertension: 1 (50) n (%)
  Motesanib-related AE: Nausea: 0 (0) n (%)
  Motesanib-related AE: Pulmonary embolism: 0 (0) n (%)
  Motesanib-related AE: Rash: 2 (100) n (%)
  Motesanib-related AE: Vomiting: 0 (0) n (%)
  Motesanib-related Arterial thromboembolic events (all grades): 1 (50) n (%)
  Motesanib-related Arterial thrombosis, Grade 3: 0 (0) n (%)
  Motesanib-related Arterial thrombosis, Grade 4: 1 (50) n (%)
  Motesanib-related Cerebrovascular accident, Grade 2: 0 (0) n (%)
  Motesanib-related Deep vein thrombosis, Grade 2: 0 (0) n (%)
  Motesanib-related Deep vein thrombosis, Grade 3: 0 (0) n (%)
  Motesanib-related Gallbladder disorder, Grade 1: 0 (0) n (%)
  Motesanib-related Hemorrhagic events, Grade 1: 0 (0) n (%)
  Motesanib-related Jugular vein thrombosis, Grade 2: 0 (0) n (%)
  Motesanib-related Neutropenia, Grade 3: 0 (0) n (%)
  Motesanib-related Pulmonary embolism, Grade 4: 0 (0) n (%)
  Motesanib-related Pulmonary embolism, Grade 5: 0 (0) n (%)
  Motesanib-related Venous thromboembolic events (all grades): 0 (0) n (%)
  Patients with any motesanib-related AE: 2 (100) n (%)
[5]
  Any motesanib-related AE, Grade 3: 2 (33) n (%)
  Any motesanib-related AE, Grade 4: 2 (33) n (%)
